According to PubChem BioAssay (NCI):
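Test compounds were applied to cells in 96-well plates for 48 hours at 5 doses. GI50 is the concentration that inhibits growth by half. At the TGI there is no net growth.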

Key:
Assay in all cases: NCI anticancer screen, dose series, 48 h
HCT-15 colon = tested on: HCT-15 colon
COLO 205 colon = tested on: COLO 205 colon
DLD-1 colon = tested on: DLD-1 colon
SNB-75 CNS = tested on: SNB-75 CNS
786-0 renal = tested on: 786-0 renal
SK-OV-3 ovarian = tested on: SK-OV-3 ovarian
EKVX NSCLC = tested on: EKVX NSCLC
SNB-19 CNS = tested on: SNB-19 CNS
PC-3 prostate = tested on: PC-3 prostate

## O=C1C(c2ccc([N+](=O)[O-])cc2)=[N+]([O-])c2ccccc21
HCT-15 colon
  TGI: 54.4 µM
COLO 205 colon
  TGI: 30.1 µM
DLD-1 colon
  TGI: > 100 µM
SNB-75 CNS
  TGI: 69 µM
786-0 renal
  TGI: > 100 µM
SK-OV-3 ovarian
  TGI: > 100 µM
EKVX NSCLC
  TGI: > 100 µM

## C=C1C(=O)O[C@H]2[C@H]1CC/C(COC(=O)/C=C\C(=O)NCc1ccc(Cn3c(=O)sn(-c4ccc(OC)cc4)c3=O)cc1)=C\CC[C@@]1(C)O[C@@H]21
SNB-19 CNS
  GI50: 0.879 µM
  TGI: 1.78 µM
HCT-15 colon
  GI50: 0.443 µM
  TGI: 1.56 µM
COLO 205 colon
  GI50: 0.633 µM
  TGI: 2.02 µM
SNB-75 CNS
  GI50: 0.407 µM
  TGI: 1.23 µM
786-0 renal
  GI50: 0.665 µM
  TGI: 1.37 µM
SK-OV-3 ovarian
  GI50: 4.77 µM
  TGI: 11.6 µM
PC-3 prostate
  GI50: 0.542 µM
  TGI: 1.32 µM
EKVX NSCLC
  GI50: 0.773 µM
  TGI: 1.51 µM

## COc1ccc(Nc2c3c4c(cccc4[nH]c2=O)C(=O)c2ccccc2-3)cc1
SNB-19 CNS
  GI50: 0.684 µM
  TGI: > 100 µM
HCT-15 colon
  GI50: 0.0271 µM
  TGI: > 100 µM
COLO 205 colon
  GI50: 0.0191 µM
  TGI: 0.0446 µM
SNB-75 CNS
  GI50: 0.0278 µM
  TGI: > 72.1 µM
786-0 renal
  GI50: 0.0334 µM
  TGI: 19.6 µM
SK-OV-3 ovarian
  GI50: 0.0492 µM
  TGI: > 56.3 µM
PC-3 prostate
  GI50: 0.0473 µM
  TGI: > 100 µM
EKVX NSCLC
  GI50: 0.0552 µM
  TGI: > 100 µM

## CSC(=S)N/N=C/c1ccccc1
SNB-19 CNS
  TGI: > 100 µM
HCT-15 colon
  TGI: > 100 µM
COLO 205 colon
  TGI: > 100 µM
SNB-75 CNS
  TGI: > 100 µM
786-0 renal
  TGI: > 100 µM
SK-OV-3 ovarian
  TGI: > 100 µM
PC-3 prostate
  TGI: > 100 µM
EKVX NSCLC
  TGI: > 100 µM

## CC(C)(C)C(=O)OCOP(=O)(OCOC(=O)C(C)(C)C)C1CCCN(OC(=O)c2ccccc2)C1=O (stereo not drawn)
SNB-19 CNS
  GI50: 1.51 µM
  TGI: 17 µM
HCT-15 colon
  GI50: 1.28 µM
  TGI: 39.9 µM
COLO 205 colon
  GI50: 2.39 µM
  TGI: 15.2 µM
SNB-75 CNS
  GI50: 5.1 µM
  TGI: 93.1 µM
786-0 renal
  GI50: 0.61 µM
  TGI: 26.4 µM
SK-OV-3 ovarian
  GI50: 1.99 µM
  TGI: 27.1 µM
PC-3 prostate
  GI50: 4.38 µM
  TGI: > 100 µM
EKVX NSCLC
  GI50: 0.999 µM
  TGI: 50.7 µM

## CC1(C)Cc2cccc(OCC(O)CN3CCN(c4ccc(F)cc4)CC3)c2O1 (stereo not drawn)
SNB-19 CNS
  GI50: 31.7 µM
  TGI: > 50 µM
HCT-15 colon
  GI50: 13.5 µM
  TGI: > 50 µM
COLO 205 colon
  GI50: 11.1 µM
  TGI: 26.9 µM
SNB-75 CNS
  GI50: 10.9 µM
  TGI: 34.2 µM
786-0 renal
  GI50: 5.66 µM
  TGI: 15.7 µM
SK-OV-3 ovarian
  GI50: 23.2 µM
  TGI: > 50 µM
PC-3 prostate
  GI50: 14 µM
  TGI: > 50 µM
EKVX NSCLC
  GI50: 25 µM
  TGI: > 50 µM

## CCCN(CCC)c1ccc(C=O)cc1
SNB-19 CNS
  GI50: 62 µM
  TGI: > 100 µM
HCT-15 colon
  GI50: > 84.2 µM
  TGI: > 100 µM
COLO 205 colon
  GI50: > 77.6 µM
  TGI: > 100 µM
SNB-75 CNS
  GI50: 18.4 µM
  TGI: > 100 µM
786-0 renal
  GI50: 81 µM
  TGI: > 100 µM
SK-OV-3 ovarian
  GI50: > 100 µM
  TGI: > 100 µM
PC-3 prostate
  GI50: 38.1 µM
  TGI: > 100 µM
EKVX NSCLC
  GI50: 30.2 µM
  TGI: > 100 µM

## Cc1ccc(Cl)cc1Nc1nc(C(F)(F)F)ccc1C(=O)N/N=C/c1c(Cl)cccc1Cl
SNB-19 CNS
  GI50: 1.75 µM
  TGI: > 52.2 µM
HCT-15 colon
  GI50: 0.41 µM
  TGI: 12.8 µM
COLO 205 colon
  GI50: 0.395 µM
  TGI: 1.72 µM
SNB-75 CNS
  GI50: 1.45 µM
  TGI: > 24.2 µM
786-0 renal
  GI50: 0.588 µM
  TGI: 1.38 µM
SK-OV-3 ovarian
  GI50: 0.899 µM
  TGI: 4.76 µM
PC-3 prostate
  GI50: 0.554 µM
  TGI: > 34.3 µM
EKVX NSCLC
  GI50: 0.507 µM
  TGI: 3.71 µM

## CC(=O)Oc1ccc2ccc(=O)oc2c1OC(C)=O
SNB-19 CNS
  TGI: > 100 µM
HCT-15 colon
  TGI: > 100 µM
COLO 205 colon
  TGI: 63.1 µM
SNB-75 CNS
  TGI: > 100 µM
786-0 renal
  TGI: > 100 µM
SK-OV-3 ovarian
  TGI: > 100 µM
PC-3 prostate
  TGI: > 100 µM
EKVX NSCLC
  TGI: > 100 µM

## COc1ccc(S(=O)(=O)N2CCN(C(=O)OCc3ccccc3)CC2C(=O)NO)cc1 (stereo not drawn)
SNB-19 CNS
  GI50: > 25 µM
  TGI: > 25 µM
HCT-15 colon
  GI50: > 25 µM
  TGI: > 25 µM
COLO 205 colon
  GI50: > 25 µM
  TGI: > 25 µM
SNB-75 CNS
  GI50: > 25 µM
  TGI: > 25 µM
786-0 renal
  GI50: > 25 µM
  TGI: > 25 µM
SK-OV-3 ovarian
  GI50: > 25 µM
  TGI: > 25 µM
PC-3 prostate
  GI50: 17.6 µM
  TGI: > 25 µM
EKVX NSCLC
  GI50: 6.18 µM
  TGI: > 25 µM

## COc1cc(C(=O)NC2CCN(C)CC2)ccc1Nc1ncc2c(n1)N(C1CCCC1)CC(F)(F)C(=O)N2C
SNB-19 CNS
  GI50: 0.0375 µM
  TGI: 16.8 µM
HCT-15 colon
  GI50: 0.468 µM
  TGI: 13.7 µM
COLO 205 colon
  GI50: < 0.01 µM
  TGI: 0.064 µM
SNB-75 CNS
  GI50: 0.0198 µM
  TGI: 16.1 µM
786-0 renal
  GI50: 0.0903 µM
  TGI: 6.87 µM
SK-OV-3 ovarian
  GI50: < 0.0133 µM
  TGI: 0.761 µM
PC-3 prostate
  GI50: < 0.0249 µM
  TGI: 21.4 µM
EKVX NSCLC
  GI50: 0.245 µM
  TGI: 17.5 µM

## O=C(O)c1cc(N/C=C2\C(=O)c3ccccc3OC2O)ccc1O (stereo not drawn)
SNB-19 CNS
  GI50: 19.9 µg/mL
  TGI: 67.5 µg/mL
HCT-15 colon
  GI50: 15.7 µg/mL
  TGI: 44.7 µg/mL
COLO 205 colon
  GI50: 30.6 µg/mL
  TGI: 77.9 µg/mL
SNB-75 CNS
  GI50: 25.2 µg/mL
  TGI: 129 µg/mL
786-0 renal
  GI50: 30.8 µg/mL
  TGI: 57.7 µg/mL
SK-OV-3 ovarian
  GI50: 29.3 µg/mL
  TGI: 75.1 µg/mL
PC-3 prostate
  GI50: 29.4 µg/mL
  TGI: 120 µg/mL
EKVX NSCLC
  GI50: 24.3 µg/mL
  TGI: 78.5 µg/mL

## CCOC(=O)c1c[nH]c2c(OCc3ccccc3)c3ccccc3c(O)c2c1=O
SNB-19 CNS
  GI50: 16.7 µM
  TGI: 97.1 µM
HCT-15 colon
  GI50: 11.1 µM
  TGI: > 100 µM
COLO 205 colon
  GI50: 47 µM
  TGI: > 100 µM
SNB-75 CNS
  GI50: 11.6 µM
  TGI: > 54.4 µM
786-0 renal
  GI50: 18.6 µM
  TGI: 57.4 µM
SK-OV-3 ovarian
  GI50: 26.3 µM
  TGI: > 100 µM
PC-3 prostate
  GI50: 2.97 µM
  TGI: > 68 µM
EKVX NSCLC
  GI50: 6.98 µM
  TGI: 52.7 µM

## O=C1Nc2cc(Cl)ccc2Oc2cc(Oc3ccccc3)ccc21
SNB-19 CNS
  GI50: 10.5 µM
  TGI: 49.2 µM
HCT-15 colon
  GI50: 3.84 µM
  TGI: > 100 µM
COLO 205 colon
  GI50: 5.3 µM
  TGI: 19.9 µM
SNB-75 CNS
  GI50: 1.49 µM
  TGI: 20.1 µM
786-0 renal
  GI50: 8.96 µM
  TGI: 42.2 µM
SK-OV-3 ovarian
  GI50: 4.66 µM
  TGI: 17.4 µM
PC-3 prostate
  GI50: 4.85 µM
  TGI: 48.4 µM
EKVX NSCLC
  GI50: 4.36 µM
  TGI: 37.2 µM

## CN(CCCCCl)P(=O)(OCc1ccc([N+](=O)[O-])o1)C(F)(F)c1ccc(CC(=O)N[C@@H](CC(=O)O)C(=O)N[C@@H](Cc2ccc(C(F)(F)P(=O)(OCc3ccc([N+](=O)[O-])o3)N(C)CCCCCl)cc2)C(N)=O)cc1 (stereo partly drawn)
SNB-19 CNS
  GI50: 54.9 µM
  TGI: > 100 µM
HCT-15 colon
  GI50: > 100 µM
  TGI: > 100 µM
COLO 205 colon
  GI50: 41 µM
  TGI: > 100 µM
SNB-75 CNS
  GI50: 34.5 µM
  TGI: 91.9 µM
786-0 renal
  GI50: > 100 µM
  TGI: > 100 µM
SK-OV-3 ovarian
  GI50: > 100 µM
  TGI: > 100 µM
PC-3 prostate
  GI50: 80.5 µM
  TGI: > 100 µM
EKVX NSCLC
  GI50: 67.7 µM
  TGI: > 100 µM

## O=C(O)CN(CC(=O)O)Cc1cc2c(cc1O)Oc1cc(O)c(CN(CC(=O)O)CC(=O)O)cc1C21OC(=O)c2ccccc21
SNB-19 CNS
  TGI: > 100 µM
HCT-15 colon
  TGI: > 100 µM
COLO 205 colon
  TGI: > 100 µM
SNB-75 CNS
  TGI: > 100 µM
786-0 renal
  TGI: > 100 µM
SK-OV-3 ovarian
  TGI: > 100 µM
PC-3 prostate
  TGI: > 100 µM
EKVX NSCLC
  TGI: > 100 µM
